# Results as given in US8063221B2, “Aminoquinolones as GSK-3 inhibitors” (Kyorin Pharmaceutical Co., Ltd., priority 2006, dated 2011).
# Biological target: T1, recombinant full-length human GSK3β (Homo sapiens, UniProt P49841)
# T1 construct: recombinant full-length human GSK3β (Upstate); purchased Upstate
# Assay: Luciferase-coupled cell-free GSK3β kinase assay
# Type: biochemical
# Settings: Table 1
# Protocol: For compounds in Tables 1 and 2, IC50 (μM) for GSK3β enzyme in cell free assay is provided as follows:
# Luciferase-Coupled Protein Kinase Assays
# All coupled-luciferase assays are performed by using a brief incubation with firefly luciferase (Promega) after completion of the kinase assay. KinaseGlo Plus is used for reading kinase reactions with ATP>10 μM, KinaseGlo for ATP <10 μM. The assay volume in a 384-well plate for the kinase reaction is 30 microliters.
# 10-25 ng of recombinant full-length human GSK3β (Upstate) is incubated in the presence or absence of compound at varying concentrations for 1 hour at 30 degrees Celsius in 20 mM MOPS, pH 7.0, 10 mM magnesium acetate, 0.2 mM EDTA, 2 mM EGTA, 30 mM magnesium chloride, 62.5 μM phospho-glycogen synthase peptide-2, 5 μM ATP, 10 mM β-glycerol phosphate, 1 mM sodium orthovanadate and 1 mM dithiothreitol. Proceed to KinaseGlo luciferase reaction (see below).
# Following the completion of the kinase reaction an equal volume of KinaseGlo or KinaseGlo Plus luciferase reagent (Promega) is added and the luminescence read using a luminescence plate reader within 5-10 minutes. Compound activity is expressed as % inhibition relative to maximal inhibition observed at the maximal dose and IC50 values then calculated using curve fitting software (GraphPad Prizm).
# T1 sequence (P49841 whole entry): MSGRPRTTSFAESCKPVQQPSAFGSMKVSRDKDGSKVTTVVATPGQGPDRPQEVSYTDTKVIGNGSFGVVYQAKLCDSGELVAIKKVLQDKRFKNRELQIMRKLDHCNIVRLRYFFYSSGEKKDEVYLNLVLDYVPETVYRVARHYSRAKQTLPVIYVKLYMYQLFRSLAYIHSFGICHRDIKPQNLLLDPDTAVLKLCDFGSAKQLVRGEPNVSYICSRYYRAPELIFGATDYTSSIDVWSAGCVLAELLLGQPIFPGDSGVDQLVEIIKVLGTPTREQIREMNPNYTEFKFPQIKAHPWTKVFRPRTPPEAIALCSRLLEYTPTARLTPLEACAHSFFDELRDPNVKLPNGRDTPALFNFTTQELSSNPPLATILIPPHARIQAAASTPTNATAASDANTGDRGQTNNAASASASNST
row,SMILES,IC50 [nM]
1,Nc1c(F)c(NCc2ccc(Cl)cc2)c(F)c2c1c(=O)c(C(=O)O)cn2C1CC1 [compound 8],500 to 1000
2,Nc1c(F)c(N2CCN(Cc3ccccc3)CC2)c(F)c2c1c(=O)c(C(=O)O)cn2C1CC1 [compound 22],> 1000
3,Nc1c(F)c(NCCNC(=O)c2ccccc2)c(F)c2c1c(=O)c(C(=O)O)cn2C1CC1 [compound 30],500 to 1000
4,Nc1c(F)c(NCCNC(=O)c2ccc(F)cc2)c(F)c2c1c(=O)c(C(=O)O)cn2C1CC1 [compound 34],100 to 500
5,Nc1c(F)c(NCCNC(=O)c2ccc(F)cc2)c(F)c2c1c(=O)ccn2C1CC1 [compound 35],100 to 500
6,Nc1c(F)c(NCCn2cncn2)c(F)c2c1c(=O)c(C(=O)O)cn2C1CC1 [compound 44],> 1000
7,Nc1cc(NCCCc2ccccc2)cc2c1c(=O)c(C(=O)O)cn2C1CC1 [compound 45],> 1000

# Continued, values first:
row,IC50 [nM],SMILES
1,500 to 1000,Nc1ccc(CCNc2c(F)c(N)c3c(=O)c(C(=O)O)cn(C4CC4)c3c2F)cc1 [compound 2]
2,100 to 500,Nc1c(F)c(NCCc2ccc(Cl)cc2)c(F)c2c1c(=O)c(C(=O)O)cn2C1CC1 [compound 4]
3,500 to 1000,Nc1c(F)c(NCCc2ccc(Cl)cc2)c(F)c2c1c(=O)ccn2C1CC1 [compound 9]
4,> 1000,Nc1c(F)c(NCc2ccc(Cl)cc2)c(F)c2c1c(=O)ccn2C1CC1 [compound 14]
5,500 to 1000,Nc1c(F)c(NCCc2ccc(Cl)cc2Cl)c(F)c2c1c(=O)c(C(=O)O)cn2C1CC1 [compound 18]
6,> 1000,Nc1c(F)c(NCCc2ccc(Cl)cc2Cl)c(F)c2c1c(=O)ccn2C1CC1 [compound 24]
7,> 1000,CC(C)OCCCNc1c(F)c(N)c2c(=O)ccn(C3CC3)c2c1F [compound 25]
8,> 1000,Nc1c(F)c(NCCc2ccc(-c3ccccc3)cc2)c(F)c2c1c(=O)ccn2C1CC1 [compound 27]
9,> 1000,Nc1c(F)c(NCCc2ccc(F)cc2F)c(F)c2c1c(=O)ccn2C1CC1 [compound 31]
10,500 to 1000,Nc1c(F)c(NCCc2ccccc2)c(F)c2c1c(=O)ccn2C1CC1 [compound 32]
11,500 to 1000,Nc1c(F)c(NCCNC(=O)c2ccccc2)c(F)c2c1c(=O)ccn2C1CC1 [compound 33]
12,> 1000,Nc1cc(NCCNc2ccccn2)cc2c1c(=O)c(C(=O)O)cn2C1CC1 [compound 36]
13,100 to 500,N#Cc1ccc(NCCNc2c(F)c(N)c3c(=O)c(C(=O)O)cn(C4CC4)c3c2F)nc1 [compound 37]
14,500 to 1000,Nc1c(F)c(NCCNC(=O)c2ccccn2)c(F)c2c1c(=O)c(C(=O)O)cn2C1CC1 [compound 38]
15,500 to 1000,Nc1c(F)c(NCCNC(=O)c2ccc3ccccc3n2)c(F)c2c1c(=O)c(C(=O)O)cn2C1CC1 [compound 39]
16,100 to 500,N#Cc1ccc(NCCNc2c(F)c(N)c3c(=O)ccn(C4CC4)c3c2F)nc1 [compound 40]
17,500 to 1000,Nc1c(F)c(NCCNC(=O)c2ccncc2)c(F)c2c1c(=O)c(C(=O)O)cn2C1CC1 [compound 41]
18,> 1000,Nc1c(F)c(NCCn2ccnc2)c(F)c2c1c(=O)c(C(=O)O)cn2C1CC1 [compound 42]

# Same assay, conditions: Table 2
row,SMILES,IC50 [nM]
1,C[C@H]1COc2c(NCCOc3ccc(-c4ccccc4)cc3)c(F)c(N)c3c(=O)c(C(=O)O)cn1c23 [Example 96],500 to 1000
2,C[C@H]1COc2c(NCCOc3ccccc3)c(F)c(N)c3c(=O)c(C(=O)O)cn1c23 [Example 99],< 100
3,C[C@H]1COc2c(NCCC3CCCCC3)c(F)c(N)c3c(=O)c(C(=O)O)cn1c23 [Example 104],< 100
4,C[C@H]1COc2c(NCCOc3ccc(C(=O)O)cc3)c(F)c(N)c3c(=O)c(C(=O)O)cn1c23 [Example 105],< 100
5,C[C@H]1COc2c(NCCCc3ccccc3)c(F)c(N)c3c(=O)c(C(N)=O)cn1c23 [Example 106],< 100
6,Cc1n[nH]c(SCCNc2c(F)c(N)c3c(=O)c(C(=O)O)cn4c3c2OC[C@@H]4C)n1 [Example 111],< 100
7,C[C@H]1COc2c(NCCSc3c[nH]c4ccccc34)c(F)c(N)c3c(=O)c(C(=O)O)cn1c23 [Example 116],< 100
8,C[C@H]1COc2c(NCCCNC(=O)c3ccccn3)c(F)c(N)c3c(=O)c(C(=O)O)cn1c23 [Example 117],< 100
9,CC1COc2c(NCCNc3cccc4ccccc34)c(F)c(N)c3c(=O)c(C(=O)O)cn1c23 (stereo not drawn) [compound 7],< 100
10,Nc1c(F)c(NCCNc2ccccn2)c2c3c1c(=O)c(C(=O)O)cn3CCCO2 [compound 11],> 1000
11,CC1(C)COc2c(NCCNc3cccc(F)n3)c(F)c(N)c3c(=O)c(C(=O)O)cn1c23 [compound 35],< 100
12,Nc1c(F)c(NCCCc2ccccc2)c2c3c1c(=O)c(C(=O)O)cn3CCCO2 [compound 46],100 to 500
13,CC1COc2c(NCCCn3cnc4ccccc43)c(F)c(N)c3c(=O)ccn1c23 (stereo not drawn) [compound 47],100 to 500
14,Nc1c(F)c(NCCCn2ccnc2)c2c3c1c(=O)c(C(=O)O)cn3CCCO2 [compound 53],100 to 500
15,COc1c(NCCNc2cccc3ccccc23)c(F)c(N)c2c(=O)ccn(C3CC3)c12 [compound 66],< 100
16,C[C@H]1COc2c(NCCCN3CCc4ccccc43)c(F)c(N)c3c(=O)c(C(=O)O)cn1c23 [compound 68],100 to 500
17,C[C@H]1COc2c(NCCN3CCc4ccccc43)c(F)c(N)c3c(=O)c(C(=O)O)cn1c23 [compound 69],< 100

# Other lines, results leading:
row,IC50 [nM],SMILES
1,100 to 500,COc1ccc(OCCNc2c(F)c(N)c3c(=O)c(C(=O)O)cn4c3c2OC[C@@H]4C)cc1 [Compound 87]
2,> 1000,C[C@H]1COc2c(NCCN3CCC(c4ccccc4)C3)c(F)c(N)c3c(=O)c(C(=O)O)cn1c23 (stereo partly drawn) [Example 91]
3,< 100,Cc1nn(C)c(C)c1CCCNc1c(F)c(N)c2c(=O)c(C(=O)O)cn3c2c1OC[C@@H]3C [Example 92]
4,< 100,Cc1cc(NCCNc2c(F)c(N)c3c(=O)c(C(=O)O)cn4c3c2OC[C@@H]4C)c2ccccc2n1 [Example 94]
5,100 to 500,C[C@H]1COc2c(NCCC(c3ccccc3)c3ccc4c(c3)OCO4)c(F)c(N)c3c(=O)c(C(=O)O)cn1c23 (stereo partly drawn) [Example 97]
6,< 100,CCOc1ccc(CCCNc2c(F)c(N)c3c(=O)c(C(=O)O)cn4c3c2OC[C@@H]4C)cc1OCC [Example 98]
7,< 100,Cc1ccc2nc(C)cc(NCCNc3c(F)c(N)c4c(=O)c(C(=O)O)cn5c4c3OC[C@@H]5C)c2c1 [Example 100]
8,< 100,C[C@H]1COc2c(NCCCc3ccc(Cl)cc3)c(F)c(N)c3c(=O)c(C(=O)O)cn1c23 [Example 102]
9,< 100,C[C@H]1COc2c(NCCCc3ccccc3)c(F)c(N)c3c(=O)c(C#N)cn1c23 [Example 108]
10,< 100,C[C@H]1COc2c(NCCNc3ccccn3)c(F)c(N)c3c(=O)c(C#N)cn1c23 [Example 110]
11,< 100,C[C@H]1COc2c(NCCCNC(=O)c3cccnc3)c(F)c(N)c3c(=O)c(C(=O)O)cn1c23 [Example 118]
12,500 to 1000,Nc1c(F)c(NCCCn2cc[n+]3ccccc23)c2c3c1c(=O)c(C(=O)O)cn3CCO2 [compound 10]
13,100 to 500,C[C@H]1COc2c(NCCc3ccncc3)c(F)c(N)c3c(=O)c(C(=O)O)cn1c23 [compound 22]
14,100 to 500,CC1(C)COc2c(NCCCOc3ccccc3)c(F)c(N)c3c(=O)c(C(=O)O)cn(c23)C1 [compound 28]
15,100 to 500,Nc1c(F)c(NCCCn2cnc3ccccc32)c2c3c1c(=O)c(C(=O)O)cn3CCCO2 [compound 45]
